Data reported in US11021488B2, “Hetero-substituted cyclic lactone analogues and uses thereof” (BioVentures, LLC, priority 2015, dated 2021).

What was measured:
AML primary samples = experiment: Activity of SLs against AML primary samples
MV4-11 cells = experiment: Cytotoxic activity of SLs against MV4-11 cells (flow cytometry, YO-PRO-1 / 7-AAD); assay type: cell-based; details: MV4-11 AML cell line, cell viability at 36 hours, triplicate
Description: Following this promising data, additional SLs were studied. This included glaucolide A (FIG. 5A), glaucolide E (FIG. 5B) and calaxin (FIG. 4A). Further, an additional compound Bahia I (FIG. 11) was synthesized (described below) and evaluated. The cytotoxicity of these compounds was determined using the AML cell line, MV4-11. MV4-11 cells were treated with the compounds at varying concentrations in triplicate. Cells were then stained with YO-PRO-1 and 7-aminoactinomycin D (7-AAD). YO-PRO-1 stains apoptotic cells and 7-ADD detects cell permeability. At 36 hours cell viability was measured via flow cytometry.

[1] = system: normal peripheral blood mononuclear cells (PBMNCs); experiment: Toxicity against normal peripheral blood mononuclear cells compared with leukemic cells; assay type: cell-based; details: PBMNCs compared with leukemic cells (FIG. 14)
Source text: The cytotoxicity of Bahia II against leukemic cells was compared with its activity against normal peripheral blood mononuclear cells (PBMNCs) (FIG. 14).

Solubility in water = assay type: physicochemical
MOLM-13_BLIV cells = experiment: In vivo efficacy in NSG mice injected with MOLM-13_BLIV leukemia cells (luciferin imaging); details: 2.5 mg/kg in 20% DMSO i.p. every other day, imaged Day 23 and Day 31, vs vehicle
Description: To evaluate the efficacy of bahia II (BAH) in vivo, 6-8 week old NSG mice were injected i.v. via tail vein with 2.5×10^5 MOLM-13_BLIV cells. Two weeks after injection mice were injected with 3 mg of luciferin to visualize the leukemia cells using the IVIS Spectrum Imager. This was denoted time 0. Mice were randomized into 2 groups: (1) Vehicle (DMSO 20%) and (2) bahia II (BAH) (2.5 mg/kg in 20% DMSO). Mice were treated with vehicle or BAH every other day. After 3 doses, administered by i.p. injection, mice were imaged to evaluate tumor progression (Day 23). One week after the first 3 doses, the mice were treated and evaluated again in the same manner (Day 31).

Compound | Average LD50 (AML primary samples) [µM] | LD50 (MV4-11 cells) [µM] | also measured
C=C1C(=O)O[C@@H]2[C@H]3C(C)=CC(=O)C3=C(C)CC[C@@H]12 [DHL, Dehydroleucodine, reference compound] | 7.06 | 3.19 | –
C=C1C(=O)O[C@@H]2/C=C(\C)CC/C=C(\C)C[C@@H](OC(=O)/C(=C/CO)CO)[C@@H]12 [Eupatoriopicrin] | 5.65 | 1.09 | –
Bahia I | – | 2.80 | –
C=C(C)C(=O)O[C@@H]1C[C@@]2(C)OC(=CC2=O)/C(C)=C\[C@H]2OC(=O)C(=C)[C@@H]21 [Calaxin] | – | 0.0544 | –
Glaucolide E | – | 1.12 | –
C=C1C(=O)OC2C1C(OC(=O)/C(=C/CO)CO)CC1(CO1)C1CC=C(C)C21 (centres unmarked) [Bahia II] | 4.64 | 1.21 | toxicity against normal cells versus leukemia cells [1]: much lower toxicity against normal cells; solubility in water (Solubility in water; mass concentration): 1750 ± 60 µg/mL; solubility in water (Solubility in water; molar): 465 µM; radiance emitted from tumor cells (MOLM-13_BLIV cells): significant reduction in radiance
Glaucolide A | – | 1.82 | –
